Data on two compounds can be found in US20040258733A1, “Breath Freshening and Oral Cleansing Product Using Salicylaldehyde” (priority 2002, published 2004).

SMILES strings stand for the structures. In brackets after ≈: the same amount, converted by molar mass.

Common to all, as to assay type: cell-based
Assay [1] relates to Fusobacterium nucleatum. Briefly: MIC study, 96 well microtiter plate serial dilution. The following applies: F. nucleatum, 37° C., 48 hours, turbidity at 660 nm, read-out: MIC (minimum inhibitory concentration). How it is done: (§1) In vitro tests were conducted with a gram positive supragingival plaque bacterium, Streptococcus mutans. In addition, two subgingival plaque bacteria associated with oral malodor were tested, Porphyromonas gingivalis and Fusobacterium nucleatum. The MIC (Minimum Inhibitory Concentrations) study protocol is as follows. Chlorhexidine was used as a positive control and sterile water was used as a negative control. Salicylaldehyde was suspended in 10% methanol with 3.8% Tween 80. […] 96 well microtiter plates were used for this study. Each well contained […] of bacteria, serially diluted agents and bacterial growth medium. All bacterial cultures were incubated at 37° C. and stationary. Bacterial growth was estimated spectrophotometrically at 660 nm, after 48 hours. The MIC for each test bacteria was defined as the minimum concentration of test compound limiting turbidity to […].

For assay [2], the system named is Porphyromonas gingivalis. The description is as above. The following applies: P. gingivalis, 37° C., 48 hours, turbidity at 660 nm, read-out: MIC (minimum inhibitory concentration). The protocol: as §1
The subject of assay [3] is Fusobacterium nucleatum. Briefly: MBC determination, plating on blood agar. The following applies: F. nucleatum, lowest concentration that killed at least 99.9% of initial inoculum, plates 48 hours at 37° C., read-out: MBC (minimum bactericidal concentration). The protocol: (§2) The MBC (Minimum bactericidal concentrations) were determined using the 96 well microtiter plate serial dilutions as described above for MIC studies. Serial dilution of cultures in wells showing no visible growth were performed and 10 microliters of culture were plated in triplicate on blood agar plates. Viable colonies were scored after incubation of the plates for 48 hours at 37° C. For each test bacterium, the number of CFU/ml were determined in the initial inoculum. The MBC was defined as the lowest concentration of a test compound that killed at least 99.9% of the cells present in the initial inoculum.

In assay [4] the test system is Porphyromonas gingivalis. Briefly: MBC determination, plating on blood agar. Particulars: P. gingivalis, lowest concentration that killed at least 99.9% of initial inoculum, plates 48 hours at 37° C., read-out: MBC (minimum bactericidal concentration). The protocol: as §2
Assay [5] has as its system Streptococcus mutans. Briefly: MIC study, 96 well microtiter plate serial dilution. How it is done: as §1

As for `[H]/N=C(\N/C(=N/[H])NCCCCCCNC(=N)NC(=N)Nc1ccc(Cl)cc1)Nc1ccc(Cl)cc1` [Cholorhexidine, Chlorhexidine, reference compound], the MIC in assay [1] and in assay [2] was 1.25 µg/mL (≈ 2.47 µM) each time. Besides, the MBC in assay [3] and in assay [4] was 1.25 µg/mL (≈ 2.47 µM) each time.
With `O=Cc1ccccc1O` [salicylaldehyde], in assay [5], the “effectiveness against S. mutans (in words)” value is “not exceptionally effective”. Further, the MIC in assay [5] (Streptococcus mutans, S. mutans, 37° C., 48 hours, turbidity at 660 nm, read-out: MIC (minimum inhibitory concentration)) is 1000 µg/mL (≈ 8190 µM); in assay [1], 7.8 µg/mL (≈ 63.9 µM); in assay [2] it was 125 µg/mL (≈ 1020 µM). The MBC was determined as 15.6 µg/mL (≈ 128 µM) in assay [3] and 250 µg/mL (≈ 2050 µM) in assay [4].
